Molecular target: T1, GST-tagged ROR gamma ligand binding domain (LBD) (Homo sapiens, UniProt P51449)
T1 construct: purchased Invitrogen
T1 sequence (P51449 269-508 limits assumed): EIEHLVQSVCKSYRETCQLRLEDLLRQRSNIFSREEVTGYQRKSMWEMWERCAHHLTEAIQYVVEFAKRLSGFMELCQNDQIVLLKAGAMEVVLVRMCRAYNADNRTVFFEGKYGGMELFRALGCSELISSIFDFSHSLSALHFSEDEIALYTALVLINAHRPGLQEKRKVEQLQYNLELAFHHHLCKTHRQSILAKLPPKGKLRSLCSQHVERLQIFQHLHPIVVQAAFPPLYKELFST
Assay: TR-FRET assay for ROR gamma (LanthaScreen co-activator peptide recruitment)
Format: biochemical
Conditions: for inhibition at 1 µM: compound 1 μM; for inhibition at 1 µM / inhibition at 10 µM: TR-FRET ratio 520/495, percent of control; for inhibition at 10 µM: compound 10 μM; for IC50: class symbols, from dose response curve
From the text: The compounds described herein were screened for ROR gamma modulator activity using the TR-FRET assay by Lantha Screen as described in JBC 2011, 286, 26: 22707-10; and Drug Metabolism and Disposition 2009, 37, 10: 2069-78.
The assay is based on the principle that binding of the agonist to the ROR gamma causes a conformational change around helix 12 in the ligand binding domain, resulting in higher affinity for the co-activator peptide. ROR gamma being constitutively active, the Fluorescein-D22 co-activator peptide used in the assay is recruited in the absence of a ligand. Binding of the co-activator peptide, causes an increase in the TR-FRET signal while binding of an antagonist decreases the recruitment of the co-activator peptide, causing a decrease in the TR-FRET signal compared to control with no compound. The assay was performed using a two-step procedure, pre-incubation step with the compound followed by the detection step on addition of the anti-GST tagged terbium (Tb) and fluorescein tagged fluorophores as the acceptor.
Test compounds or reference compounds such as T0901317 (Calbiochem) were dissolved in dimethylsulfoxide (DMSO) to prepare 10.0 mM stock solutions and diluted to the desired concentration. The final concentration of DMSO in the reaction was 4% (v/v). The assay mixture was prepared by mixing 10 nM of the GST-tagged ROR gamma ligand binding domain (LBD) in the assay buffer containing 25 mM HEPES (pH 7.4), 100 mM NaCl, 5 mM DTT and 0.01% BSA with or without the desired concentration of the compound. The reaction was incubated at 22° C. for 1 hour. The pre-incubation step was terminated by addition of the detection mixture containing 300 nM Fluorescein-D22 co-activator peptide and 10 nM lantha screen Tb-anti GST antibody into the reaction mixture. After shaking for 5 minutes the reaction was further incubated for 1 hour at room temperature and read at 4° C. on an Infinite F500 reader as per the kit instructions (Invitrogen). The inhibition of test compound was calculated based on the TR-FRET ratio of 520/495. The activity was calculated as a percent of control reaction. IC50 values were calculated from dose response curve by nonlinear regression analysis using GraphPad Prism software.
Percentage inhibition at concentrations of 1.0 μM and 10.0 μM are given in the table along with IC50 (nM) details for selected examples.

Structure (SMILES): CCS(=O)(=O)c1ccc(CC(=O)Nc2ccc(OC(C)(C)c3ccc(F)c(F)c3)cc2)cc1 [Example 1, N-(4-{[2-(3,4-Difluorophenyl)propan-2-yl]oxy}phenyl)-2-[4(ethylsulfonyl)phenyl]acetamide]
- inhibition at 1 µM: 47.7%
- inhibition at 10 µM: 74.3%

Structure (SMILES): CCS(=O)(=O)c1ccc(CC(=O)Nc2ccc(OC(C)(C)c3ccc(F)cc3F)cc2)cc1 [Example 2, N-(4-{[2-(2,4-Difluorophenyl)propan-2-yl]oxy}phenyl)-2-[4-(ethylsulfonyl)phenyl]acetamide]
- inhibition at 1 µM: 66.9%
- inhibition at 10 µM: 78%

Structure (SMILES): CCS(=O)(=O)c1ccc(CC(=O)Nc2ccc(OC(C)(C)c3ccc(Cl)cc3Cl)cc2)cc1 [Example 3, N-(4-{[2-(2,4-Dichlorophenyl)propan-2-yl]oxy}phenyl)-2-[4-(ethylsulfonyl)phenyl]acetamide]
- IC50: < 50 nM
- inhibition at 1 µM: 81.3%
- inhibition at 10 µM: 83.4%

Structure (SMILES): CCS(=O)(=O)c1ccc(CC(=O)Nc2ccc(OC(C)(C)c3ccc(Cl)c(Cl)c3)cc2)cc1 [Example 4, N-(4-{[2-(3,4-Dichlorophenyl)propan-2-yl]oxy}phenyl)-2-[4-(ethylsulfonyl)phenyl]acetamide]
- IC50: < 50 nM
- inhibition at 1 µM: 80.5%
- inhibition at 10 µM: 86.4%

Structure (SMILES): CCS(=O)(=O)c1ccc(CC(=O)Nc2ccc(OC(C)(C)c3cc(Cl)cc(Cl)c3)cc2)cc1 [Example 5, N-(4-{[2-(3,5-Dichlorophenyl)propan-2-yl]oxy}phenyl)-2-[4-(ethylsulfonyl)phenyl]acetamide]
- inhibition at 1 µM: 58.2%
- inhibition at 10 µM: 66.9%

Structure (SMILES): CCS(=O)(=O)c1ccc(CC(=O)Nc2ccc(OC(C)(C)c3ccc(Cl)cc3F)cc2)cc1 [Example 6, N-(4-{[2-(4-Chloro-2-fluorophenyl)propan-2-yl]oxy}phenyl)-2-[4-(ethylsulfonyl)phenyl]acetamide]
- inhibition at 1 µM: 77.5%
- inhibition at 10 µM: 83.1%

Structure (SMILES): CCS(=O)(=O)c1ccc(CC(=O)Nc2ccc(OC(C)(C)c3ccc(Cl)c(F)c3)cc2)cc1 [Example 7, N-{4-[1-(4-Chloro-3-fluoro-phenyl)-1-methyl-ethoxy]-phenyl}-2-(4-ethanesulfonyl-phenyl)-acetamide]
- inhibition at 1 µM: 74.4%
- inhibition at 10 µM: 85.1%

Structure (SMILES): CCS(=O)(=O)c1ccc(CC(=O)Nc2ccc(OC(C)(C)c3ccc(F)cc3Cl)cc2)cc1 [Example 8, N-(4-{[2-(2-Chloro-4-fluorophenyl)propan-2-yl]oxy}phenyl)-2-[4-(ethylsulfonyl)phenyl]acetamide]
- IC50: < 50 nM
- inhibition at 1 µM: 85%
- inhibition at 10 µM: 87.8%

Structure (SMILES): CCS(=O)(=O)c1ccc(CC(=O)Nc2ccc(OC(C)(C)c3ccc(C(F)(F)F)cc3)cc2)cc1 [Example 9, 2-[4-(Ethylsulfonyl)phenyl]-N-[4-({2-[4-(trifluoromethyl)phenyl]propan-2-yl}oxy)phenyl]acetamide]
- IC50: < 50 nM
- inhibition at 1 µM: 86.5%
- inhibition at 10 µM: 89%

Structure (SMILES): CCS(=O)(=O)c1ccc(CC(=O)Nc2ccc(OC(C)(C)c3ccc(C(F)(F)F)c(F)c3)cc2)cc1 [Example 10, 2-(4-Ethanesulfonyl-phenyl)-N-{4-[1-(3-fluoro-4-trifluoromethyl-phenyl)-1-methyl-ethoxy]-phenyl}-acetamide]
- inhibition at 1 µM: 70.9%
- inhibition at 10 µM: 81.5%

Structure (SMILES): CCS(=O)(=O)c1ccc(CC(=O)Nc2ccc(OC(C)(C)c3ncc(Cl)cc3Cl)cc2)cc1 [Example 11, N-{4-[1-(3,5-Dichloro-pyridin-2-yl)-1-methyl-ethoxy]-phenyl}-2-(4-ethanesulfonyl-phenyl)-acetamide]
- IC50: < 50 nM
- inhibition at 1 µM: 84.3%
- inhibition at 10 µM: 89%

Structure (SMILES): CCC(CC)(Oc1ccc(NC(=O)Cc2ccc(S(=O)(=O)CC)cc2)cc1)c1ccc(Cl)c(F)c1 [Example 12, N-{4-[1-(4-Chloro-3-fluoro-phenyl)-1-ethyl-propoxy]-phenyl}-2-(4-ethanesulfonyl-phenyl)-acetamide]
- IC50: 50 to 100 nM
- inhibition at 1 µM: 73.9%
- inhibition at 10 µM: 85.4%

Structure (SMILES): CCC(CC)(Oc1ccc(NC(=O)Cc2ccc(S(=O)(=O)CC)cc2)cc1)c1ccc(F)cc1F [Example 13, N-{4-[1-(2,4-Difluoro-phenyl)-1-ethyl-propoxy]-phenyl}-2-(4-ethanesulfonyl-phenyl)-acetamide]
- inhibition at 1 µM: 56.2%
- inhibition at 10 µM: 68.8%

Structure (SMILES): CCn1c(C(C)(C)Oc2ccc(NC(=O)Cc3ccc(S(=O)(=O)CC)cc3)cc2)nc2ccc(F)cc21 [Example 14, N-(4-{[2-(1-ethyl-6-fluoro-1H-benzimidazol-2-yl)propan-2-yl]oxy}phenyl)-2-[4-(ethylsulfonyl)phenyl]acetamide]
- IC50: < 50 nM
- inhibition at 1 µM: 88.9%
- inhibition at 10 µM: 93.3%

Structure (SMILES): CCn1c(C(C)(C)Oc2ccc(NC(=O)Cc3ccc(S(=O)(=O)CC)cc3)cc2)nc2cc(F)ccc21 [Example 15, 2-(4-Ethanesulfonyl-phenyl)-N-{4-[1-(1-ethyl-5-fluoro-1H-benzoimidazol-2-yl)-1-methyl-ethoxy]-phenyl}-acetamide]
- IC50: < 50 nM
- inhibition at 1 µM: 83%
- inhibition at 10 µM: 85.2%

Structure (SMILES): CCn1c(C(C)(C)Oc2ccc(NC(=O)Cc3ccc(S(=O)(=O)CC)cc3)cc2)nc2cc(Cl)ccc21 [Example 16, N-(4-{[2-(5-Chloro-1-ethyl-1H-benzimidazol-2-yl)propan-2-yl]oxy}phenyl)-2-[4-(ethylsulfonyl)phenyl]acetamide]
- IC50: < 50 nM
- inhibition at 1 µM: 88.6%
- inhibition at 10 µM: 94.3%

Structure (SMILES): CCn1c(C(C)(C)Oc2ccc(NC(=O)Cc3ccc(S(=O)(=O)CC)cc3)cc2)nc2ccc(Cl)cc21 [Example 17, N-(4-{[2-(6-Chloro-1-ethyl-1H-benzimidazol-2-yl)propan-2-yl]oxy}phenyl)-2-[4-(ethylsulfonyl)phenyl]acetamide]
- IC50: < 50 nM
- inhibition at 1 µM: 88.7%
- inhibition at 10 µM: 94.3%

Structure (SMILES): CCS(=O)(=O)c1ccc(CC(=O)Nc2ccc(OC(C)(C)c3nc4ccc(Cl)cc4n3C)cc2)cc1 [Example 18, N-{4-[1-(6-Chloro-1-methyl-1H-benzoimidazol-2-yl)-1-methyl-ethoxy]-phenyl}-2-(4-ethanesulfonyl-phenyl)-acetamide]
- IC50: > 100 nM
- inhibition at 1 µM: 78.6%
- inhibition at 10 µM: 91%

Structure (SMILES): CCn1c(C(C)(C)Oc2ccc(NC(=O)Cc3ccc(S(=O)(=O)CC)cc3)cc2)nc2cccc(Cl)c21 [Example 19, N-(4-{[2-(7-Chloro-1-ethyl-1H-benzimidazol-2-yl)propan-2-yl]oxy}phenyl)-2-[4-(ethylsulfonyl)phenyl]acetamide]
- IC50: 50 to 100 nM
- inhibition at 1 µM: 85.5%
- inhibition at 10 µM: 88.9%

Structure (SMILES): CCS(=O)(=O)c1ccc(CC(=O)Nc2ccc(OC(C)(C)c3nc4cc(F)ccc4n3C(C)C)cc2)cc1 [Example 20, 2-(4-Ethanesulfonyl-phenyl)-N-{4-[1-(5-fluoro-1-isopropyl-1H-benzoimidazol-2-yl)-1-methyl-ethoxy]-phenyl}-acetamide]
- IC50: > 100 nM
- inhibition at 1 µM: 79.8%
- inhibition at 10 µM: 85.2%

Structure (SMILES): CCn1c(C(F)(F)Oc2ccc(NC(=O)Cc3ccc(S(=O)(=O)CC)cc3)cc2)nc2cc(Cl)ccc21 [Example 22, N-{4-[(5-Chloro-1-ethyl-1H-benzoimidazol-2-yl)-difluoro-methoxy]-phenyl}-2-(4-ethanesulfonyl-phenyl)-acetamide]
- inhibition at 1 µM: 74.4%
- inhibition at 10 µM: 82.8%

Structure (SMILES): CCn1c(C2(Oc3ccc(NC(=O)Cc4ccc(S(=O)(=O)CC)cc4)cc3)CC2)nc2ccc(Cl)cc21 [Example 23, N-(4-{[1-(6-Chloro-1-ethyl-1H-benzimidazol-2-yl)cyclopropyl]oxy}phenyl)-2-[4-(ethylsulfonyl)phenyl]acetamide]
- IC50: > 100 nM
- inhibition at 1 µM: 69.6%
- inhibition at 10 µM: 86%

Structure (SMILES): CCn1c(C2(Oc3ccc(NC(=O)Cc4ccc(S(=O)(=O)CC)cc4)cc3)CC2)nc2cc(Cl)ccc21 [Example 24, N-{4-[1-(5-Chloro-1-ethyl-1H-benzoimidazol-2-yl)-cyclopropoxy]-phenyl}-2-(4-ethanesulfonyl-phenyl)-acetamide]
- IC50: > 100 nM
- inhibition at 1 µM: 65.7%
- inhibition at 10 µM: 85.6%

From patent US9718817B2, “Aryl and heteroaryl ether compounds as ROR gamma modulators” (Glenmark Pharmaceuticals S.A., priority 2014, dated 2017)
